In patent publication US8883782B2, “Spiro-tetracyclic ring compounds as beta-secretase modulators and methods of use” (Amgen Inc., priority 2010, dated 2014) one finds IC50 data, which are given here for 20 compounds.

The target in assay [1] is Beta Secretase enzyme (BACE) (Homo sapiens, UniProt P56817). The assay can be described thus: In vitro enzymatic BACE FRET (fluorescence resonance energy transfer) assay. The assay is classed as biochemical. In short, it runs like this: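 Cleavage of a 50 nM fluorophore/quencher peptide FRET substrate by BACE for 1 h in 0.05 M acetate pH 4.2, 10% DMSO, 100 uM genapol. Reaction stopped with Tris to neutral pH before fluorescence reading.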
Chain of Beta Secretase enzyme (BACE) (P56817 46-501, species assumed): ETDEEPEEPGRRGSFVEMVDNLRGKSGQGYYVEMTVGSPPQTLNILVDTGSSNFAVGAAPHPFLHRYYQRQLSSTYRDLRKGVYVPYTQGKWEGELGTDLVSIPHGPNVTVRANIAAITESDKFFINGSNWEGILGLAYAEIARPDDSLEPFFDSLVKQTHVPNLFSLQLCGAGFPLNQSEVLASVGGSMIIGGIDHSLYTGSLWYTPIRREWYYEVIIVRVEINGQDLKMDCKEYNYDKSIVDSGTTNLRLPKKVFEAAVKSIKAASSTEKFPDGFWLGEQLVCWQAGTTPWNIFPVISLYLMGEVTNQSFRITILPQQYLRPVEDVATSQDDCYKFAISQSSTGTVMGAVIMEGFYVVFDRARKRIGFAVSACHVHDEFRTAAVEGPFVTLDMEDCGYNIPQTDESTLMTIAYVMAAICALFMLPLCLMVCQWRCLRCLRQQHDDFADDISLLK

Assay [2] concerns Aβ40 in conditioned medium of cells stably expressing Amyloid Precursor Protein (APP). The assay can be described thus: In vitro BACE cell-based assay (Aβ40 in conditioned medium, sandwich ELISA). The note with it: Homo sapiens. In short, it runs like this:
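Step two: 10-point compound titration added, starting 100 μM or 10 μM, 0.1% DMSO. Step three: medium Aβ40 measured by ELISA, capture 3 h and detection 2 h at 4° C, TRF read.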
Background: An ELISA detects its analyte on a solid surface through an enzyme-linked reagent.

[3] abbreviates: average IC50, enzyme assay, read-out: BACE 1 FRET assay.
[4] abbreviates: HEK293, average IC50, HEK cells, read-out: HEK cell assay.
The mark [5] stands for this setting: HEK293, average IC50, read-out: HEK cell assay.

Like-named read-outs stand apart in the source and are kept apart here.

As to `CC1(COc2cc(F)c3c(c2)[C@@]2(CSC(N)=N2)c2cc(-c4cncnc4)c(F)cc2O3)COC1` [Example 876, (4R)-3′,5′-difluoro-7′-((3-methyl-3-oxetanyl)methoxy)-2′-(5-pyrimidinyl)spiro[1,3-thiazole-4,9′-xanthen]-2-amine], the IC50 was determined as 0.0449 µM in assay [1] (setting [3]) and 0.634 µM in assay [2] (setting [4]).
For `CC1(C#Cc2cnc3c(c2)[C@@]2(COC(N)=N2)c2cc(-c4cncc(Cl)c4)c(F)cc2O3)COC1` [Example 625, (5R)-7-(5-chloro-3-pyridinyl)-8-fluoro-3-((3-methyl-3-oxetanyl)ethynyl)spiro[chromeno[2,3-b]pyridine-5,4′-[1,3]oxazol]-2′-amine] the same measures were 0.901 µM and 2.21 µM.
For `NC1=N[C@@]2(CO1)c1cc(-c3cccnc3F)ccc1Oc1c2cc(C2=CCOCC2)c(F)c1F` [Example 1011, (4S)-2′-(3,6-dihydro-2H-pyran-4-yl)-3′,4′-difluoro-7′-(2-fluoro-3-pyridinyl)spiro[1,3-oxazole-4,9′-xanthen]-2-amine], the IC50 in assay [1] (setting [3]) was found to be 0.0005 µM; in assay [2] (setting [5]), 0.017 µM.
`NC1=N[C@@]2(CO1)c1cc(-c3cnccc3F)ccc1Oc1cnc(C3=CCOCC3)cc12` [Example 391, (5S)-3-(3,6-dihydro-2H-pyran-4-yl)-7-(4-fluoro-3-pyridinyl)spiro[chromeno[2,3-c]pyridine-5,4′-[1,3]oxazol]-2′-amine]: the IC50 in assay [1] (BACE 1 FRET assay (uM)) stood at 0.0007 µM; in assay [2] (HEK293, read-out: HEK cell assay (uM), average IC50, HEK cells), 0.0058 µM.
`CC(C)(C#N)COc1cc(F)c2c(c1)[C@]1(COC(N)=N1)c1cc(-c3ccc(F)nc3)ccc1O2` [Example 263, 3-(((4S)-2-amino-4′-fluoro-7′-(6-fluoro-3-pyridinyl)spiro[1,3-oxazole-4,9′-xanthen]-2′-yl)oxy)-2,2-dimethylpropanenitrile]: the figures for the IC50 in assay [1] (setting [3]) and in assay [2] (setting [5]) were 0.0023 µM and 0.0133 µM, respectively.
For `COc1cccc(COc2ccc3c(c2)[C@@]2(COC(N)=N2)c2cc(-c4cccnc4)cnc2O3)c1` [Example 983, (5S)-7-((3-methoxybenzyl)oxy)-3-(3-pyridinyl)spiro[chromeno[2,3-b]pyridine-5,4′-[1,3]oxazol]-2′-amine], the results for the IC50 in assay [1] (setting [3]) and in assay [2] (setting [5]) were 0.0246 µM and 0.314 µM, respectively.
Taken in the same sequence, the figures for `N#Cc1cc(-c2ccc3c(c2)[C@@]2(CSC(N)=N2)c2cc(C4=CCOCC4)cnc2O3)ccc1F` [Example 764, 5-((5S)-2′-amino-3-(3,6-dihydro-2H-pyran-4-yl)spiro[chromeno[2,3-b]pyridine-5,4′-[1,3]thiazol]-7-yl)-2-fluorobenzonitrile] were 0.0006 µM and 0.006 µM.
For `Cn1cc(-c2cc(F)c3c(c2)[C@]2(COC(N)=N2)c2cc(OCC4(C)COC4)ccc2O3)cn1` [Example 444, (4S)-4′-fluoro-7′-((3-methyl-3-oxetanyl)methoxy)-2′-(1-methyl-1H-pyrazol-4-yl)spiro[1,3-oxazole-4,9′-xanthen]-2-amine], the IC50 is 0.02 µM in assay [1] (setting [3]) and 0.0386 µM in assay [2] (setting [4]).
For `NC1=N[C@@]2(CO1)c1cc(-c3cncc(F)c3)ccc1Oc1ncc(C3=CCOCC3)cc12` [Example 457, (5S)-3-(3,6-dihydro-2H-pyran-4-yl)-7-(5-fluoro-3-pyridinyl)spiro[chromeno[2,3-b]pyridine-5,4′-[1,3]oxazol]-2′-amine], the IC50 in assay [1] (setting [3]) was found to be 0.0015 µM; in assay [2] (setting [4]), 0.0066 µM.
Regarding `NC1=N[C@]2(CS1)c1cc(-c3cncc(F)c3)ccc1Oc1cnc(C3=CCOCC3)cc12` [Example 618, (5R)-3-(3,6-dihydro-2H-pyran-4-yl)-7-(5-fluoro-3-pyridinyl)spiro[chromeno[2,3-c]pyridine-5,4′-[1,3]thiazol]-2′-amine], the IC50 in assay [1] (setting [3]) turned out to be 0.369 µM; in assay [2] (setting [4]) it was 6.67 µM.
Regarding `CC#Cc1cncc(-c2ccc3c(c2)[C@@]2(COC(N)=N2)c2cc(OC)cc(F)c2O3)c1` [Example 824, (4S)-4′-fluoro-2′-methoxy-7′-(5-(1-propyn-1-yl)-3-pyridinyl)spiro[1,3-oxazole-4,9′-xanthen]-2-amine], the IC50 in assay [1] (setting [3]) is 0.0002 µM; in assay [2] (setting [5]), 0.02 µM.
For `CC(C)(C)C#Cc1ccc2c(c1)[C@@]1(COC(N)=N1)c1cc(C3=CCOCC3)ncc1O2` [Example 161, (5S)-3-(3,6-dihydro-2H-pyran-4-yl)-7-(3,3-dimethyl-1-butyn-1-yl)spiro[chromeno[2,3-c]pyridine-5,4′-[1,3]oxazol]-2′-amine], the values for the IC50 in assay [1] (setting [3]) and in assay [2] (setting [5]) were 0.0097 µM and 0.108 µM, respectively.
As to `COCC1SC(N)=N[C@]12c1cc(-c3cccnc3F)ccc1Oc1cnc(-c3ccnc(F)c3)cc12` (stereo partly drawn) [Example 722, (5S)-7-(2-fluoro-3-pyridinyl)-3-(2-fluoro-4-pyridinyl)-5′-(methoxymethyl)spiro[chromeno[2,3-c]pyridine-5,4′-[1,3]thiazol]-2′-amine], the IC50 turned out to be 0.335 µM in assay [1] (setting [3]) and 5.93 µM in assay [2] (setting [4]).
As for `CC1(COc2cc(F)c3c(c2)[C@@]2(CSC(N)=N2)c2cc(-c4cccnc4F)ccc2O3)COC1` [Example 793, (4R)-4′-fluoro-7′-(2-fluoro-3-pyridinyl)-2′-((3-methyl-3-oxetanyl)methoxy)spiro[1,3-thiazole-4,9′-xanthen]-2-amine], the IC50 is 0.18 µM in assay [1] (setting [3]) and 4.81 µM in assay [2] (setting [5]).
For `N#Cc1cc(-c2ccc3c(c2)[C@@]2(COC(N)=N2)c2cc(-c4ccnc(F)c4)cnc2O3)ccc1F` [Example 786, 5-((5S)-2′-amino-3-(2-fluoro-4-pyridinyl)spiro[chromeno[2,3-b]pyridine-5,4′-[1,3]oxazol]-7-yl)-2-fluorobenzonitrile] the same measures were 0.0105 µM and 0.041 µM.
As for `N#Cc1ncccc1-c1ccc2c(c1)[C@@]1(COC(N)=N1)c1cc(C3=CCOCC3)ncc1O2` [Example 389, 3-((5S)-2′-amino-3-(3,6-dihydro-2H-pyran-4-yl)spiro[chromeno[2,3-c]pyridine-5,4′-[1,3]oxazol]-7-yl)-2-pyridinecarbonitrile], the IC50 in assay [1] (setting [3]) came out at 0.0111 µM; in assay [2] (setting [4]) it was 0.0684 µM.
With `COc1ccc(OC)c(-c2ccc3c(c2)[C@@]2(COC(N)=N2)c2cc(C4=CCOCC4)cnc2O3)c1` [Example 502, (5S)-3-(3,6-dihydro-2H-pyran-4-yl)-7-(2,5-dimethoxyphenyl)spiro[chromeno[2,3-b]pyridine-5,4′-[1,3]oxazol]-2′-amine], the IC50 in assay [1] (setting [3]) came to 0.0025 µM; in assay [2] (setting [4]), 0.0127 µM.
As for `NC1=N[C@@]2(CO1)c1cc(-c3cncnc3)ccc1Oc1cnc(N3CCC(F)(F)C3)cc12` [Example 540, (5S)-3-(3,3-difluoro-1-pyrrolidinyl)-7-(5-pyrimidinyl)spiro[chromeno[2,3-c]pyridine-5,4′-[1,3]oxazol]-2′-amine], the IC50 is 0.0008 µM in assay [1] (setting [3]) and 0.0072 µM in assay [2] (setting [4]).
For `NC1=N[C@@]2(CS1)c1cc(-c3cccc(Cl)c3)ccc1Oc1cnc(C3=CCOCC3)cc12` [Example 591, (5S)-7-(3-chlorophenyl)-3-(3,6-dihydro-2H-pyran-4-yl)spiro[chromeno[2,3-c]pyridine-5,4′-[1,3]thiazol]-2′-amine] the same measures were 0.0007 µM and 0.0733 µM.
In the case of `COc1nccc(-c2cc(F)c3c(c2)[C@]2(COC(N)=N2)c2cc(-c4cccnc4F)ccc2O3)n1` [Example 607, (4S)-4′-fluoro-7′-(2-fluoro-3-pyridinyl)-2′-(2-methoxy-4-pyrimidinyl)spiro[1,3-oxazole-4,9′-xanthen]-2-amine], the IC50 in assay [1] (setting [3]) was determined as 0.0051 µM; in assay [2] (setting [4]), 0.07 µM.
